Measured values as given in ChEMBL document CHEMBL5728846, “6H-thieno[2,3-e][1,2,4]triazolo[3,4-c][1,2,4]triazepine derivative” (2021).

Assay: NF-keppaB Inhibitory Activity Evaluation Test: A549/NF-κB-luc cells (available from Panomics, Cat No. LR0051) were prepared at 375,000 cells/mL in the culture medium. The 375,000 cells/mL A549/NF-κB-luc cell suspension was seeded at 80 μL each on a white 96-well plate (available from Greiner, Cat No. 655073). One hour after seeding the cells, 10 μL of 2% DMSO solution (control) and each compound solution in each concentration were added to each well of the 96-well plate. One hour after the addition of each compound solution, 10 ng/mL of the TNF-α solution (10 μL) was added to each well of the 96-well plate. Three hours after the addition of 10 ng/mL of the TNF-α solution, 100 μL of Steady-Glo reagent (available from Promega, Cat No. E2510) was added to each well of the 96-well plate. After 30 to 90 minutes of the addition of the Steady-Glo reagent, the luminescence intensity of each well was detected by EnVision multilabel counter (available from PerkinElmer).

`Cc1sc2c(c1C)C(c1ccc(Cl)cc1)=NN(Cc1cccc(F)n1)c1nnc(C)n1-2` gave an IC50 of 33.6 nM.
